Values joined by “and” are separate entries in the source; they are usually repeats but may differ in a detail not shown here. Equal values may be shown once. “Also recorded” adds a separate entry of the source.
Molecular target: mitochondrial ceramidase (Rattus norvegicus, UniProt Q91XT9)
Test: mitochondrial ceramidase (mt-CDase) activity, radioactive assay or HPLC assay
Assay type: biochemical
Settings: for effect on mt-CDase activity (in words): concentrations as stated at the place; for inhibition at 50 µM: read-out: inhibition (maximal inhibition) of mt-CDase activity; for IC50 (50% inhibition of mt-CDase activity): substrate D-erythro-ceramide 0.625 mole %; for type of inhibition (double reciprocal analysis: Km increased, Vmax unchanged): varying D-erythro-ceramide concentration; for increase in ceramide hydrolysis: tested at 0-5 mole % (0-400 μM), [3H]-C16-ceramide 0.625 mole %; for inhibition of mt-CDase activity: inhibitor at 0.6 mole %; for IC50: substrate D-erythro-ceramide 50 μM; for extent of inhibition of ceramidase: sphingosine stereoisomers at higher concentrations (FIG. 4b)
Protocol: The enzymatic activity of mitochondrial ceramidase was determined by either one of the two following methods:
a. Radioactive assay: The mt-CDase activity was determined by measuring the release of radioactive fatty acid from tritiated ceramide ([^3H]-C16-Cer), labeled in the acyl chain. Briefly, organic solutions of ceramide and its analogues were initially mixed together, solvents were completely evaporated under nitrogen, then the dried lipids were dispersed in Triton-X 100 by sonication and vigorous vortexing. The reaction assay contained (in a final volume of 200 μl): enzyme (5-10 ng) and 10 nmoles of tritiated C16-ceramide (1×10^5 dpm) delivered in 100 μl of 1% Triton X-100 micelles in a glycine buffer pH 9.5 (200 mM).
b. HPLC-assay: The Mt-CDase activity was also determined by measuring the amount of sphingosine released. Basically the assay was initially the same as described above but using non-radioactive ceramide. The reaction was stopped with 800 μl of chloroform: methanol (2:1 v/v) mixture followed by the addition of phyto-sphingosine (0.5 nmoles) and dihydro-sphingosine (1 nmole) as internal standard and carrier, respectively. The reaction mix was then extracted with NaOH (50 μl, 1N), and the lower chloroform layer containing the sphingosine was further washed with water (100 μl) and dried. The released sphingosine was quantified as the ortho-phthaldehyde (OPA) derivatives as described (30). […] The solvent system was methyl alcohol: potassium phosphate buffer (5 mM), pH 7.0 (90:10 v/v) at a flow rate of 1 ml/min. […] Activity was determined relative to the phytosphingosine OPA peak.
The effects of various compounds of the invention which are stereochemical and structural analogues of ceramide and sphingosine on mt-CDase were investigated. […] Results were expressed as percent of the control ceramidase activity.

[1] = Table 1, ceramide analogues, hydrolysis of D-erythro-C16 or C18-ceramide at 0.625 mole % (50 μM)
[2] = inhibitor at 0.625 mole % (50 μM)
[3] = Table 2, sphingosine analogues, hydrolysis of D-erythro-ceramide at 0.625 mole % (50 μM)

mitochondrial ceramidase, sequence (Q91XT9 whole entry): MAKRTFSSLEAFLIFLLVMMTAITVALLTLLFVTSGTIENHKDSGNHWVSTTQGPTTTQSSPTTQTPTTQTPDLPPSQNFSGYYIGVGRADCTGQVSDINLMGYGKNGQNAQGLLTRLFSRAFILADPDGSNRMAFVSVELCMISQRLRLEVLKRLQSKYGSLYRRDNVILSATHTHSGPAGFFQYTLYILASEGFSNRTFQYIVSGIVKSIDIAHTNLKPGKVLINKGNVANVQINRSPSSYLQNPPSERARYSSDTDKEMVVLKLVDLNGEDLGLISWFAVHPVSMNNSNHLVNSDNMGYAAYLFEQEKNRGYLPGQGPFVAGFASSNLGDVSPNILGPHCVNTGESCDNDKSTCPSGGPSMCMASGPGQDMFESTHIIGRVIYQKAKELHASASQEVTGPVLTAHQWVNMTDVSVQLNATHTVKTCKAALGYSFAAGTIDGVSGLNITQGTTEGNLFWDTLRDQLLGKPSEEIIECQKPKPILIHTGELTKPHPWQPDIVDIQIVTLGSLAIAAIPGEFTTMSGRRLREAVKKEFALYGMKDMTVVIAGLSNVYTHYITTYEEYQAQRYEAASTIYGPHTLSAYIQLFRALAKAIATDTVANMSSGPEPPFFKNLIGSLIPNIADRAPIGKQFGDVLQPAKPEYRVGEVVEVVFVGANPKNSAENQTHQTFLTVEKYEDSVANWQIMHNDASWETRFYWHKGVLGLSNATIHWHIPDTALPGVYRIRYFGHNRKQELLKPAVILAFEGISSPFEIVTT

Molecule	Estimated IC50 (mole %) [1]	IC50 (50% inhibition of mt-CDase activity)	Estimated IC50 (mole %) [3]	effect on mt-CDase activity (in words)	further results
CCCCCCCCCCCCC/C=C/[C@@H](O)[C@H](COC)NC(=O)CCCCCCCCCCCCCCC [1-O-Me-C16-Cer, 1-O-methyl-D-erythro-C16-ceramide]	no effect				effect on mt-CDase activity (in words) (listed as 1-O-Me-ceramide): do not interact with the enzyme; effect on mt-CDase activity (in words) (listed as 1-O-methyl ceramide): no effect
CCCCCCCCCCCCC/C=C/[C@@H](OC)[C@H](CO)NC(=O)CCCCCCCCCCCCCCC [3-O-Me-C16-Cer, 3-O-methyl-D-erythro-C16-ceramide]	no effect				effect on mt-CDase activity (in words) (listed as 3-O-Me-ceramide): do not interact with the enzyme; effect on mt-CDase activity (in words) (listed as 3-O-methyl ceramide): no effect
CCCCCCCCCCCCC/C=C/C(=O)[C@H](CO)NC(=O)CCCCCCCCCCCCCCC [3-keto-C16-Cer, 3-keto-C16-ceramide]	0.6 mole %	0.60 mole %			hydrolysis by mt-CDase (substrate or not, in words): served as a substrate; inhibition at 50 µM [2]: 53%; type of inhibition (double reciprocal analysis: Km increased, Vmax unchanged): competitive substrate
CCCCCCCCCCCCCC#CC(=O)[C@@H](N)CO [3-keto-deh-Sph, 3-keto-dehydrosphingosine]			weak	weaker	inhibition at 50 µM [2]: 15%
CCCCCCCCCCCCCCCC(=O)C(N)CO (stereo not shown) [3-keto-dh-Sph, 3-keto-dihydrosphingosine]		0.34 mole %	0.2 mole %	potent inhibitor	inhibition (maximal inhibition) of mt-CDase activity [2]: 75%
CCCCCCCCCCCCC/C=C/[C@@H](O)[C@H](COP(=O)(O)O)NC(=O)CCCCCCCCCCCCCCC [Cer-1-P, D-erythro-C16-ceramide-1-phosphate]	activator			do not interact with the enzyme	increase in ceramide hydrolysis: 220%
CCCCCCCCCCCCC/C=C/[C@@H](O)[C@@H](N)COC [Compound 1-O-Me-Sph, 1-O-methyl-D-erythro-sphingosine]			weak	weaker	inhibition of mt-CDase activity: ~25%
CCCCCCCCCCCCC/C=C/[C@@H](OC)[C@@H](N)CO [Compound 3-O-Me-Sph, 3-O-methyl-D-erythro-sphingosine]			no effect		inhibition of mt-CDase activity: no effect
CCCCCCCCCCCCC/C=C/C(=O)[C@@H](N)CO [Compound 3-keto-Sph, 3-keto-sphingosine]			weak	weaker; also recorded: significant loss of inhibition	inhibition at 50 µM [2]: 35%
CCCCCCCCCCCCC/C=C/[C@@H](O)[C@H](CO)NCCCCCCCCCCCCCCCCCC [Compound C18-Ceramine, N-stearyl-D-erythro-sphingosine]			0.5 mole %		inhibition at 100 µM (inhibitor at 1.25 mole % (100 μM)): 75%; type of inhibition (double reciprocal analysis: Km increased, Vmax unchanged): competitive inhibitor
CCCCCCCCCCCCC/C=C/[C@@H](O)[C@H](CO)NC(=O)CCCCCCCCCCCCCCCCC [D-e-C18-Cer, D-erythro-C18-ceramide, reference compound]	substrate				
CCCCCCCCCCCCC/C=C/[C@@H](O)[C@@H](N)CO [D-e-Sph, D-erythro-sphingosine, reference compound]		0.04 mole %	0.04 mole %		inhibition of mt-CDase activity: totally inhibited; inhibition at 50 µM [2]: 98%; IC50: 3.3 µM
CCCCCCCCCCCCCC#C[C@@H](O)[C@@H](N)CO [D-e-deh-Sph, D-erythro-dehydrosphingosine]		0.25 mole %	0.25 mole %		inhibition at 50 µM [2]: 75%
CCCCCCCCCCCCCCC[C@@H](O)[C@@H](N)CO [D-e-dh-Sph, D-erythro-dihydrosphingosine]		0.20 mole % and 0.34 mole %	0.34 mole %		
CCCCCCCCCCCCC/C=C/[C@@H](O)[C@@H](CO)NC(=O)CCCCCCCCCCCCCCCCC [D-t-C18-Cer, D-threo-C18-ceramide]	0.21 mole %	0.21 mole %			IC50: 16.6 µM
CCCCCCCCCCCCC/C=C/[C@@H](O)[C@H](N)CO [D-t-Sph, D-threo-sphingosine]			0.11 mole %		extent of inhibition of ceramidase: 75%
CCCCCCCCCCCCC/C=C/[C@H](O)[C@@H](CO)NC(=O)CCCCCCCCCCCCCCCCC [L-e-C18-Cer, L-erythro-C18-ceramide]	0.26 mole %	0.26 mole %			IC50: 20 µM; type of inhibition (double reciprocal analysis: Km increased, Vmax unchanged): competitive
CCCCCCCCCCCCC/C=C/[C@H](O)[C@H](N)CO [L-e-Sph, L-erythro-sphingosine]			0.09 mole %		extent of inhibition of ceramidase: 98%
CCCCCCCCCCCCC/C=C/[C@H](O)[C@H](CO)NC(=O)CCCCCCCCCCCCCCCCC [L-t-C18-Cer, L-threo-C18-ceramide]	0.11 mole %	0.11 mole %			IC50: 8.8 µM
CCCCCCCCCCCCC/C=C/[C@H](O)[C@@H](N)CO [L-t-Sph, L-threo-sphingosine]			0.14 mole %		extent of inhibition of ceramidase: 60%
CCCCCCCCCCCCC/C=C/[C@@H](O)[C@H](CO)N(C)C [N,N-diMe-Sph, N,N-dimethyl-D-erythro-sphingosine]			weak	weaker; also recorded: profound loss of activity	maximal inhibition of mt-CDase (inhibitor at 2.5 mole %): 30%
CCCCCCCCCCCCC/C=C/[C@@H](O)[C@H](CO)N(C)C(=O)CCCCCCCCCCCCCCC [N-Me-C16-Cer, N-methyl-D-erythro-C16-ceramide]	no effect				effect on mt-CDase activity (in words) (listed as N-Me-Cer): loss of the interaction; effect on mt-CDase activity (in words) (listed as N-Me-ceramide): do not interact with the enzyme; effect on mt-CDase activity (in words) (listed as N-methyl-ceramide): did not affect ceramidase activity
CCCCCCCCCCCCC/C=C/[C@@H](O)[C@H](CO)NC [N-Me-Sph, N-methyl-D-erythro-sphingosine]		0.13 mole %	0.13 mole %		inhibitory effect on mt-CDase (FIG. 6a, concentration not stated directly): 75%
CCCCCCCCCCCCC/C=C/[C@@H](O)[C@@H](N)COP(=O)(O)O [Sph-1-P, D-erythro-sphingosine 1-phosphate]			activator		increase in ceramide hydrolysis: 180%
CCCCCCCCCCCCC/C=C\[C@@H](O)[C@H](CO)NC(=O)CCCCCCCCCCCCCCC [cis-D-e-C16-Cer, cis-D-erythro-C16-ceramide]	no effect			no significant effect	effect on mt-CDase activity (in words) (listed as cis D-erythro-ceramide): did not inhibit the enzyme; effect on mt-CDase activity (in words) (listed as cis-D-e-ceramide): do not interact with the enzyme
CCCCCCCCCCCCC/C=C\[C@@H](O)[C@@H](N)CO [cis-D-e-Sph, cis-D-erythro-sphingosine]			weak	weaker; also recorded: no effect; also recorded: weak inhibitor	maximal inhibition of ceramide hydrolysis (at higher concentrations, greater than 2 mole %): 32%; inhibition at 50 µM [2]: 10%
CCCCCCCCCCCCCCCC(=O)O [palmitic acid, reference compound]				no significant variation	
ceramide [reference compound]					Km of hydrolysis (ceramide as substrate): 1.3 mole %
dihydroceramide [reference compound]					hydrolysis by mt-CDase (substrate or not, in words): significant loss of activity as a substrate

From patent publication US20050043534A1, “Modulators of ceramidase and methods of used based thereon” (priority 2001, published 2005)
